Key:
[1] = Determination of the PF-value: Knoop micro hardness of tooth samples coated with product, then saliva and acetic acid (in-vitro); set-up: species or system human
Description: The capacity to protect teeth against caries can be measured with a technique well known in the art (U.S. Pat. No. 5,279,814). Demineralization with acid, decreases the hardness of the tooth surface. The hardness can be quantified indirectly by measuring the depth of penetration of a needle in the surface (measurement of micro hardness). With this procedure, so called “Knoop” method, the needle is penetrating the surface under the pressure of constant weight and leaves a mark on the surface that allows the calculation of the depth of penetration. The more the tooth is suffering from demineralization, the softer its surface will get and the larger the depth of penetration will be (Knoop F., Peters C. G., Emerson W. B., A Sensitive Pyramidal Diamond Tool for Identation Measurments, J. Res. Natn. Bur. Stand. 23, 39-61 (1939).
The procedure includes the determination of the hardness of a human tooth sample with the Knoop method. Subsequently, the tooth is treated with an experimental protecting product outside the oral cavity.
It is cleaned softly with a paper towel until the coating is invisible.
Subsequently the tooth sample is submerged in a batch of human saliva in order to simulate the conditions in the oral cavity. After removal from the saliva batch (after 30 min.) it is treated with acid over a constant time period of 30 min. at 37° C. The acid is washed away, the tooth is dried on air and the hardness is measured again. The change in hardness (delta P in μm) is obtained by comparing with the hardness of the tooth before treatment. This experiment is repeated on other tooth samples. The effect of acid on unprotected teeth is obtained by carrying out the same procedure but without the use of an experimental protecting product (delta Pa). The protecting capacity (“PF” protection factor) of an experimental protecting compound can be defined as: […]
The ability of a product to protect teeth (PF-value) is determined with the Knoop method. A tooth sample, size 3×3×3 mm is cut from a human tooth and embedded into polymerizing resin in such a way that the surface of the tooth sample appears on the surface of the (resin) cube after the resin has become solid. The surface of the tooth is mechanically polished with rotating silicon carbide abrasive paper (Struers P1200-P2400-P4000) and the micro hardness of the enamel is determined with a Knoop diamant needle (Leitz-Wetzlar;
microdurometer “Durimet”; weight 50 gr; penetration-time: 30 seconds (Collys et al., J. Dent. Res. 1990; 69: 458-462)).
The penetration leaves a mark on the tooth surface, which is related to the depth of penetration (μm) and which can be analyzed under the microscope. […] The determination of the depth of penetration is repeated six times on each of the tooth samples and the average value is calculated. In order to determine the effect of acid on the hardness of the surface, use is made of an acetic acid buffer from Merck (pH 5; 0.1N). One drop of acid is positioned on the enamel for a period of 30 minutes at 37° C. The sample is cleaned with demineralized water and dried. The hardness is measured again according to the method of Knoop. This procedure is repeated 4 times, which means that the sample has been subjected to acid for a total period of two hours.
A graph (Y: penetration depth μm; X: 5 treatment stages) can be made on the basis of 5 average values (each of them based on six measurement), one obtained before treatment with acid, and the other 4 obtained after each of the 4 treatment-stages with acid. A logaritmic regressionline is calculated.

[2] = tested on: anaerobes isolated from the oral cavity; assay: Susceptibility (MIC), agar dilution, anaerobes from the oral cavity; type: cell-based, anaerobic bacteria; settings: for activity against anaerobes: explored range 0.2 to 3.5 mg/ml
Description: The investigations included more than hundred strains isolated from the oral cavity: : anaerobes, microaerophilic bacteria, aerobes, Streptococcus spp. and yeast like fungi. The microorganisms were isolated from saliva, mucosal membrane, gingival pockets and caries decay. The susceptibility (MIC) of bacteria and yeastlike fungi were determined by means of plate dilution technique in agar.
The investigated samples were dissolved in sterile distilled water (immediately before the experiment) to obtain the following concentrations: 3.5, 1.7, 0.8, 0.4 and 0.2 mg/ml and were added into appropriate agar. The plates were inoculated using a Steers multipoint inoculator. Inoculum contained 10^6 CFU/spot. In each experimental series, the growth of strains on the culture medium without the compounds investigated was checked. The concentration at which no macroscopic growth of the microbes was observed on the medium was regarded as the lowest concentration, inhibiting the growth of microbes (MIC). The examinations of the susceptibility of microbes to the peptides were carried out twice.
Anaerobes. The susceptibility of bacteria was determined by means of the agar dilution methods with Brucella agar supplemented with 5% defibrinated sheep's blood, menadione and hemin. Sample solutions with concentrations from of 3.5-0.2 mg/ml were added into agar. The agar plate without investigated samples was included as a bacterial growth control. The inoculum of 10^6 CFU/ml was applied to the agar plates with Steers replicator. Incubation was performed for 48 hrs at 37° C. (310° K) in anaerobic jars containing a mixture of 10% CO2, 10% H2 and 80% N2, in the presence of palladium catalyst and indicator of anaerobiosis. Microaerophilic bacteria. The susceptibility of bacteria was determined by means of the agar dilution methods with Brucella agar supplemented with 5% sheep's blood. Samples solutions with concentrations from of 3.5- 0.2 mg/ml were added into agar. The agar plate without investigated samples was included as a bacterial growth control. The inoculum of 10^6 CFU/ml was applied to the agar plates with Steers replicator. The incubation was performed at 37° C. in anaerobic jars with Campy Pak (bio Merieux) for 48 hours. Streptococcus spp. The susceptibility of bacteria was determined by means of the agar dilution methods with Mueller-Hinton agar supplemented with 5% sheep's blood. Samples solutions with concentrations from of 3.5- 0.2 mg/ml were added into agar. The agar plate without investigated samples was included as a bacterial growth control. The inoculum of 10^6 CFU/ml was applied to the agar plates with Steers replicator. Incubation was performed for 24 hrs at 37° C. (310° K) in anaerobic jars containing a mixture of 10% CO2 and 90% N2. Aerobes. The susceptibility to investigated samples was determined by means of the plate dilution technique in Mueller-Hinton agar. Samples solutions with concentrations from of 3.5- 0.2 mg/ml were added into agar. The agar plate without investigated samples was included as a bacterial growth control. The inoculum of 10^6 CFU/ml was applied to the agar plates with Steers replicator. Plates were incubated for 24 hrs in 37° C. under aerobic conditions. Yeast like fungi. The susceptibility of fungi to investigated samples was determined by means of the plate dilution technique in Sabouraud's agar. Samples solutions with concentrations from of 3.5- 0.2 mg/ml were added into agar. […]

## casein phosphopeptide epsilon-polylysine copolymer [(CPP x elys)n]
[1]; 7.8% product/water w/w
  PF factor: 94
[2]
  activity against anaerobes: less effective

## Epsilon-polylysine (elys; e-polylysine) [Product 6]
[1]; 3.6% product/water w/w, with CaCl2.2H2O and KH2PO4
  PF factor: 70
[2]; at 0.2 to 0.4 mg/ml, 17 from 24 species
  anaerobes harvested from the oral cavity that are inhibited: 71%
[2]; gram-negative anaerobes, often, incl. Prevotella nigrescens, Porphyromonas gingivalis, Fusobacterium nucleatum
  mic-value (minimum inhibitory concentration): ≤ 200 µg/mL

## bisphosphonylated epsilon-polylysine [bisphosphonylated e-polylysine]
[1]; 1.5% product/water w/w
  PF factor: 99
[2]
  activity against anaerobes: good activity
